Experimental data: patent US6365100B1, “Polymethylenepolyamine dipropionamides as environmentally safe inhibitors of the carbon corrosion of iron” (CECA, S.A., priority 1997, dated 2002)

Experiments:
[1] = Carbonic corrosion-inhibitory efficiency by polarization resistance in CO2-saturated NACE-type solution; conditions: 25° C., reading after 6 hours
Experimental: The experimental procedures intended to evaluate the corrosion-inhibitory efficiencies in carbon dioxide-saturated medium of the products used (A, B and C of Example 1) are described in this example. In order to simulate the corrosive medium, a solution of NACE type containing 50 g/l of NaCl and 0.25 mg/l of acetic acid, saturated by continuously bubbling CO2 through, depending on the case, and with inhibitor added or not added, is used.
The process is performed in a thermostatically regulated 600 ml Pyrex cell including, besides a gas inlet and outlet, three electrodes coupled to the cell by ground joints, namely a carbon-steel working electrode whose surface of contact with the corrosive solution is 1 cm^2, a saturated calomel reference electrode and a platinum counterelectrode having a very large surface of contact with the corrosive solution. 500 ml of the corrosive solution is placed in the cell, as control or with inhibitor added, after which the counterelectrode and the reference electrode are put in place. The solution is de-aerated by bubbling nitrogen through for one hour and is then saturated with CO2 by bubbling for at least one hour. In order to ensure good saturation with CO2, this gas is left to bubble through throughout the experiment.
The rate of corrosion Vcorr is measured by a method of measuring polarization resistance, which is known in the art. The corrosion rate reading is taken after stabilization for 6 hours.
The percentage of protection (%P) which allows the corrosion-inhibitory efficiency of the test product to be expressed is given by the relationship:
%P={(V^0corr−V^icorr)/V^0corr}×100
where V^0corr=rate of corrosion without inhibitor
V^icorr=rate of corrosion in the presence of a dose of inhibitor.
Table II collates the percentages of protection at room temperature (25° C.) as a function of the nature of the polymethylenepolyaminodipropionamides used and their dose.

[2] = tested on: Photobacterium phosphoreum; assay: Microtox bacterial ecotoxicity test (AFNOR NF T90-320); type: cell-based; conditions: lethal concentration to destroy 50% of the population in 15 minutes
Experimental: (§1) The ecotoxicity measurements for various polymethylenepolyaminedipropionamides were carried out on a bacterium (Photobacterium phosphoreum) and on an alga (Skeletonema costatum) . The bacterial test is the Microtox test carried out according to AFNOR standard NF T90-320. The toxicities on Skeletonema costatum are determined according to the method ISO/DIS 10253. The Microtox toxicity is expressed as LC50 (lethal concentration in mg/l to destroy 50% of the population in 15 minutes). On Skeletonema costatum, the toxicity is expressed as EC50 (effective concentration in mg/l to inhibit the growth of 50% of the population in 72 hours).

[3] = tested on: Skeletonema costatum; assay: Algal ecotoxicity test (ISO/DIS 10253); type: cell-based; conditions: concentration to inhibit the growth of 50% of the population in 72 hours
Experimental: as §1

Compound	PERCENTAGE OF PROTECTION (%) ([1]; dose 10 ppm)	PERCENTAGE OF PROTECTION (%) ([1]; dose 20 ppm)	PERCENTAGE OF PROTECTION (%) ([1]; dose 50 ppm)	PERCENTAGE OF PROTECTION (%) ([1]; dose 100 ppm)	Toxicity Microtox (LC50) [2] [µg/mL]	Toxicity Skeletonema costatum (EC50) [3] [µg/mL]
NC(=O)CCNCCNCCNCCC(N)=O [Molecule A, H2NCO—(CH2)2—NH—[—(CH2)2 —NH—]2—(CH2)2—CONH2 (RN 92009-86-4)]	24	44	48	53	128	–
NC(=O)CCNCCNCCNCCNCCC(N)=O [Molecule B, H2NCO—(CH2)2—NH—[—(CH2)2 —NH—]3—CH2)2—CONH2]	34	43	48	56	104	–
NC(=O)CCNCCCNCCNCCCNCCC(N)=O [Molecule C, H2NCO—(CH2)2—NH—(CH2)3—NH—(CH2)2—NH—(CH2)3—NH—(CH2)2—CONH2]	63	70	73	82	127	5 to 10
